In patent US10150767B2, “Therapeutic compounds and uses thereof” (priority 2014, dated 2018):

Key:
TAF1-BD2 = TAF1-BD2 (Homo sapiens, UniProt P21675); test: TAF1-BD2 TR-FRET binding assay; details: Assay: TAF-1; biotinylated probe compound 1000, TR-FRET
Protocol: Specifically, in a 384 well ProxiPlate TAF1-BD2 (6 nM final) was combined with biotin-ligand (50 nM final) in 50 mM HEPES (pH 7.5), 50 mM NaCl, 1 mM TCEP, 0.01% (w/v) BSA, and 0.008% (w/v) Brij-35 either in the presence of DMSO (final 0.2% DMSO) or compound dilution series in DMSO. After 10 minutes incubation at room temperature, a mixture Eu-W1024 Anti-6×His antibody (Perkin Elmer AD0110) and SureLight™ Allophycocyanin-Streptavidin (APC-SA, Perkin Elmer CR130-100) were added to a final concentrations of 0.2 nMolar antibody and 25 nMolar APC-SA, respectively. After twenty minutes of equilibration, the plates were read on an Envision instrument and IC50s calculated using a four parameter non-linear curve fit.

CECR2 = CECR2 (Homo sapiens (Human), UniProt Q9BXF3); test: CECR2 TR-FRET binding assay; details: biotinylated probe compound 1001, TR-FRET
From the text: IC50 Measurements for Inhibitors Using CECR2 TR-FRET Binding Assay
His/Flag epitope tagged CECR2424-538 was cloned, expressed, and purified to homogeneity.

Sequence of CECR2 (Q9BXF3 424-538 limits assumed): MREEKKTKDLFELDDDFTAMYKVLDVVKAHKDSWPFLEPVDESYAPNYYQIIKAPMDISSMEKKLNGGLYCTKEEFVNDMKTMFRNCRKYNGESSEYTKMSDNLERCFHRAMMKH

Structure (SMILES)	IC50 (TAF1-BD2)	IC50 (CECR2)
COCCC(=O)Nc1ccc(-c2cn(C)c(=O)c3[nH]ccc23)cc1 [Example 7, 3-methoxy-N-[4-(6-methyl-7-oxo-1H-pyrrolo[2,3-c]pyridin-4-yl)phenyl]propanamide]		170 nM
CC1Oc2cc(-c3cn(C)c(=O)c4[nH]ccc34)ccc2NC1=O (centres unmarked) [Example 16, 2-methyl-7-(6-methyl-7-oxo-1H-pyrrolo[2,3-c]pyridin-4-yl)-4H-1,4-benzoxazin-3-one]		36 nM
CN1CCN(C(=O)c2ccc(-c3cn(C)c(=O)c4[nH]ccc34)cc2)CC1=O [Example 26, 6-methyl-4-(4-(4-methyl-3-oxopiperazine-1-carbonyl)phenyl)-1H-pyrrolo[2,3-c]pyridin-7(6H)-one]		240 nM
CCn1cc(-c2cccc(C(=O)N(C)C)c2)c2cc[nH]c2c1=O [Example 20, 3-(6-ethyl-7-oxo-1H-pyrrolo[2,3-c]pyridin-4-yl)-N,N-dimethyl-benzamide]		1300 nM
Cn1cc(-c2ccc(C(=O)Nc3ccccc3)cc2)c2cc[nH]c2c1=O [Example 35, 4-(6-methyl-7-oxo-1H-pyrrolo[2,3-c]pyridin-4-yl)-N-phenyl-benzamide]		75 nM
Cn1cc(-c2ccc(C(=O)N3CC(F)(F)C3)cc2)c2cc[nH]c2c1=O [Example 28, 4-[4-(3,3-difluoroazetidine-1-carbonyl)phenyl]-6-methyl-1H-pyrrolo[2,3-c]pyridin-7-one]		130 nM
CN1CCC(c2cccc(-c3cn(C)c(=O)c4[nH]ccc34)c2)CC1 [Example 43, 6-methyl-4-[3-(1-methyl-4-piperidyl)phenyl]-1H-pyrrolo[2,3-c]pyridin-7-one]	680 nM	
CN(C)C(=O)c1ccc(-c2cn(C)c(=O)c3[nH]ccc23)cc1 [Example 18, N,N-dimethyl-4-(6-methyl-7-oxo-1H-pyrrolo[2,3-c]pyridin-4-yl)benzamide]		730 nM
Cc1cc2c(-c3cccc(C(=O)N(C)C)c3)cn(C)c(=O)c2[nH]1 [Example 47, 3-(2,6-dimethyl-7-oxo-1H-pyrrolo[2,3-c]pyridin-4-yl)-N,N-dimethyl-benzamide]		130 nM
CN1CCc2cc(-c3cn(C)c(=O)c4[nH]ccc34)ccc2C1 [Example 44, 6-methyl-4-(2-methyl-3,4-dihydro-1H-isoquinolin-6-yl)-1H-pyrrolo[2,3-c]pyridin-7-one]		54 nM

Now from value to compound, other results behind:

IC50 (TAF1-BD2)	Structure (SMILES)	IC50 (CECR2)
350 nM	Cn1cc(-c2ccc(C(=O)N3CCOCC3)cc2)c2cc[nH]c2c1=O [Example 30, 6-methyl-4-[4-(morpholine-4-carbonyl)phenyl]-1H-pyrrolo[2,3-c]pyridin-7-one]	
440 nM	CN1CCC(Cc2cccc(-c3cn(C)c(=O)c4[nH]ccc34)c2)CC1 [Example 46, 6-methyl-4-[3-[(1-methyl-4-piperidyl)methyl]phenyl]-1H-pyrrolo[2,3-c]pyridin-7-one]	
63 nM	Cn1cc(-c2ccc(C(=O)NCc3ccccc3)cc2)c2cc[nH]c2c1=O [Example 37, N-benzyl-4-(6-methyl-7-oxo-1H-pyrrolo[2,3-c]pyridin-4-yl)benzamide]	
96 nM	CNC(=O)c1cccc(-c2cn(C)c(=O)c3[nH]ccc23)c1 [Example 24, N-methyl-3-(6-methyl-7-oxo-1H-pyrrolo[2,3-c]pyridin-4-yl)benzamide]	
